# Measured values: US6495680B1, “Helices and nanotubes on folding compositions and method of making same” (The University of Toledo, priority 2000, dated 2002)
# Test: Solubility of oligomers in organic solvents
# Type: physicochemical
# From the text: Oligomers such as the homologues H, K, L, M, N, and O are synthesized by treating acid chloride with the corresponding amines.
# From H to N, all the amide-H resonances appear at positions >9.2 ppm. […] That one amide-H resonance, appears at δ8.86.
structure (smiles),measurement,setting,value
COc1ccccc1NC(=O)c1cc(NC(=O)c2cc([N+](=O)[O-])c(OC)cc2OC)c(OC)cc1OC [K],solubility in DMF,DMF,increasingly insoluble
same,behaviour of the freshly prepared compound in DMF on standing,"freshly prepared, added to DMF, standing at room temperature, precipitation faster at elevated temperatures",gradually precipitate out
